Entries after “also recorded” stand apart in the source; their conditions may differ. Blank lines part the entries; values can stand above or below the substance they belong to.
Assays:
Assay type in all cases: cell-based
[1] = test system: IL-2 promoter; assay: IL-2 promoter luciferase reporter gene assay in Jurkat T cells; details: PMA and ionomycin
[2] = molecular target: T1, interaction between Cabin 1-14 and full length calcineurin β2 (H160N) (Homo sapiens, UniProt P16298, H160N); assay: mammalian two-hybrid assay in Jurkat T cells (luciferase reporter); details: Jurkat T cells, PMA/ionomycin stimulated, drug added 30 min prior to stimulation
T1 construct: expressed in transfected cells; host or cells: Jurkat T cells
From the text: A mammalian two-hybrid system was established in Jurkat T cells by fusing calcineurin with the Gal4 DNA binding domain and Cabin 1-14 with the VP16 activation domain (Hsu et al., Proc. Natl. Acid Sci. USA 91:3181-3185 (1994)). The fusion plasmids for mammalian two-hybrid assays were constructed as follows: The cDNAs of calcineurin Aβ2 wild type and H160N mutant were fused to the GAL4 DB in the pM vector (obtained from Clontech, Palo Alto, Calif.) (pMCNβ2 and PMCNβ2 (H160N), and the cDNA of Cabin 1-14 was fused to the VP16 AD in the pVP16 vector (pVPCabin 1-14). Jurkat T cells were transfected with 5 μg of pMCβ2 or pMCβ2 (H160N), 5 μg of pVPCabin 1-14, 1 μg of pCMV-βGal, and 2 μg of pg5Luc, a luciferase reporter plasmid containing GAL4 promoter, by electroporation (960 μF, 250V). After 48 hr, cells were stimulated with 40 nM PMA and 2.5 μM ionomycin, either alone or in combination, for 6 hr before luciferase activity was measured for each sample. The luciferase reporter gene assay reagents were obtained from Promega, Madison, Wis., and the assay was performed per manufacturer's instructions. […] Where appropriate, the transfection efficiency was measured by co-transfecting 2 μg of CMV-driven β-galactosidase expression vector and measuring enzymatic β-galactosidase activity (Ausubel et al., Current Protocols in Molecular Biology (John Wiley & Sons, Inc., New York, 1994)).

[3] = test system: IL-2 promoter; assay: IL-2 promoter activation in T cells expressing calcineurin mutant; details: expressed in T cells

Substance: Cabin 1: isolated calcineurin binding polypeptide, amino acid sequence SEQ ID NO:1, 2220 amino acids
effect on IL-2 reporter gene activation [1]: lower potency
effect on IL-2 reporter gene activation ([1]; listed as Cabin1): inhibit

sensitivity of interaction between full length calcineurin β2 (H160N) and Cabin 1-14 to drug [2]: sensitive
Substance: cyclosporin A [CsA]

Substance: bisindolylmaleimide
sensitivity of interaction between full length calcineurin β2 (H160N) and Cabin 1-14 to drug [2]: inhibited the interaction between calcineurin and Cabin 1-14 in a dose-dependent manner; also recorded: sensitive

Substance: H 160N: catalytically inactive mutant of the β2 isoform of calcineurin, used as bait
blocking of PMA and ionomycin-stimulated IL-2 promoter activation [3]: over 60%

Source: patent US6686450B1, “Immunosuppressive agents that inhibit calcineurin function and uses of these agents” (Massachusetts Institute of Technology, priority 1998, dated 2004)
